# According to ChEMBL document CHEMBL5576112, “Synthesis, in silico, in vitro evaluation of furanyl- and thiophenyl-3-phenyl-1H-indole-2-carbohydrazide derivatives as tubulin inhibitors and anticancer agents” (RSC Med Chem, 2024):
# The source made the active and inactive calls. No cut-off for these calls is given here.
# Columns and labels:
# SF-539 [1] = assay: Growth inhibition of human SF-539 cells at 10 uM measured after 48 hrs by sulforhodamine B assay; type: functional, cell-based
# SF-539 [2] = assay: Growth inhibition of human SF-539 cells measured after 48 hrs by sulforhodamine B assay; type: functional; conditions: for CC50: read-out: LC50 (the source's name)
# NCI-H522 [3] = assay: Growth inhibition of human NCI-H522 cells measured after 48 hrs by sulforhodamine B assay; type: functional; conditions: for CC50: read-out: LC50 (the source's name)
# NCI/ADR-RES [4] = assay: Growth inhibition of human NCI-ADR-RES cells at 10 uM measured after 48 hrs by sulforhodamine B assay; type: functional, cell-based
# NCI/ADR-RES [5] = assay: Growth inhibition of human NCI-ADR-RES cells measured after 48 hrs by sulforhodamine B assay; type: functional; conditions: for CC50: read-out: LC50 (the source's name)
# NCI-H522 [6] = assay: Growth inhibition of human NCI-H522 cells at 10 uM measured after 48 hrs by sulforhodamine B assay; type: functional, cell-based
# Sus scrofa [7] = species on record: Sus scrofa; assay: Inhibition of porcine brain tubulin polymerization assessed as microtubule destabilization at 10 uM measured at 60 secs interval for 60 mins in presence of GTP by fluorescence assay
# MDA-MB-231 [8] = assay: Cytotoxicity against human MDA-MB-231 cells assessed as reduction in cell viability measured after 48 hrs by MTT assay; type: functional, cell-based; conditions: MDA-MB-231, 48 h
# MDA-MB-231 [9] = assay: Cell cycle arrest in human MDA-MB-231 cells assessed as accumulation of cells at S phase at 10 uM measured after 24 hrs by Muse cell analyzer based assay (reference value: 12.9%); type: functional
# MDA-MB-231 [10] = assay: Induction of apoptosis in human MDA-MB-231 cells assessed as early apoptotic cells at 10 uM measured after 24 hrs by Annexin V/7-AAD double staining based muse cell analyzer method (reference value: 1.64%); type: functional
# [11] = Cytotoxicity against human HaCaT cells assessed as reduction in cell viability measured after 48 hrs by MTT assay; type: toxicity, cell-based
# MDA-MB-435 [12] = assay: Growth inhibition of human MDA-MB-435 cells at 10 uM measured after 48 hrs by sulforhodamine B assay; type: functional, cell-based
# MDA-MB-231 [13] = assay: Induction of apoptosis in human MDA-MB-231 cells assessed as necrotic cells at 10 uM measured after 24 hrs by Annexin V/7-AAD double staining based muse cell analyzer method (reference value: 0.72%); type: functional
# Sus scrofa [14] = species on record: Sus scrofa; assay: Inhibition of porcine brain tubulin polymerization assessed as microtubule destabilization by measuring relative fluorescence unit at 10 uM measured at 60 secs interval for 60 mins in presence of GTP by fluorescence assay
# COLO 205 [15] = assay: Growth inhibition of human COLO 205 cells measured after 48 hrs by sulforhodamine B assay; type: functional; conditions: for CC50: read-out: LC50 (the source's name)
# MDA-MB-231 [16] = assay: Induction of apoptosis in human MDA-MB-231 cells assessed as viable cells at 10 uM measured after 24 hrs by Annexin V/7-AAD double staining based muse cell analyzer method (reference value: 96.21%); type: functional; conditions: read-out: Activity
# MDA-MB-231 [17] = assay: Induction of apoptosis in human MDA-MB-231 cells assessed as late apoptotic cells at 10 uM measured after 24 hrs by Annexin V/7-AAD double staining based muse cell analyzer method (reference value: 1.44%); type: functional
# SK-MEL-5 [18] = assay: Growth inhibition of human SK-MEL-5 cells at 10 uM measured after 48 hrs by sulforhodamine B assay; type: functional, cell-based
# MDA-MB-231 [19] = assay: Cell cycle arrest in human MDA-MB-231 cells assessed as accumulation of cells at G0/G1 phase at 10 uM measured after 24 hrs by Muse cell analyzer based assay (reference value: 59.7%); type: functional
# MDA-MB-435 [20] = assay: Growth inhibition of human MDA-MB-435 cells measured after 48 hrs by sulforhodamine B assay; type: functional
# MDA-MB-231 [21] = assay: Induction of morphological changes in human MDA-MB-231 cells assessed as loss of cell polarity at 10 uM measured after 24 hrs; type: functional, cell-based
# SK-MEL-5 [22] = assay: Growth inhibition of human SK-MEL-5 cells measured after 48 hrs by sulforhodamine B assay; type: functional; conditions: for CC50: read-out: LC50 (the source's name)
# MDA-MB-231 [23] = assay: Cell cycle arrest in human MDA-MB-231 cells assessed as accumulation of cells at G2/M phase at 10 uM measured after 24 hrs by Muse cell analyzer based assay (reference value: 27.3%); type: functional
# COLO 205 [24] = assay: Growth inhibition of human COLO 205 cells at 10 uM measured after 48 hrs by sulforhodamine B assay; type: functional, cell-based
# SF-295 [25] = assay: Growth inhibition of human SF-295 cells at 10 uM measured after 48 hrs by sulforhodamine B assay; type: functional, cell-based
# SF-295 [26] = assay: Growth inhibition of human SF-295 cells measured after 48 hrs by sulforhodamine B assay; type: functional; conditions: read-out: LC50 (the source's name)
Structure (SMILES),growth inhibition (GI) (SF-539 [1]),GI50 (SF-539 [2]),CC50 (SF-539 [2]),GI50 (NCI-H522 [3]),CC50 (NCI-H522 [3]),growth inhibition (GI) (NCI/ADR-RES [4]),GI50 (NCI/ADR-RES [5]),CC50 (NCI/ADR-RES [5]),growth inhibition (GI) (NCI-H522 [6]),RFU (Sus scrofa [14]),CC50 (COLO 205 [15]),growth inhibition (GI) (SK-MEL-5 [18]),CC50 (SK-MEL-5 [22]),growth inhibition (GI) (COLO 205 [24]),other results
O=C(N/N=C/c1ccc(Cl)s1)c1[nH]c2ccc(Br)cc2c1-c1ccccc1,Active,< 100 nM,> 10000 nM,< 100 nM,> 10000 nM,Active,< 100 nM,> 10000 nM,Active,,,,,,
O=C(N/N=C/c1ccc(Br)s1)c1[nH]c2ccc(Br)cc2c1-c1ccccc1,Active,< 100 nM,> 10000 nM,< 100 nM,> 10000 nM,Active,< 100 nM,> 10000 nM,Active,,,,,,
COc1ccc(/C=N/NC(=O)c2[nH]c3ccc(Br)cc3c2-c2ccccc2)s1,,,,19.3 nM,> 100000 nM,,,,Active,45 a.u.,719 nM,Active,> 100000 nM,Active,inhibition (Sus scrofa [7]): inactive; IC50 (MDA-MB-231 [8]): 560 nM; Activity (MDA-MB-231 [9]): 11.2%; Activity (MDA-MB-231 [10]): 3.48%; IC50 at 48 h [11]: 340 nM; growth inhibition (GI) (MDA-MB-435 [12]): Active; Activity (MDA-MB-231 [13]): 5.13%; GI50 (COLO 205 [15]): 191 nM; viability at 10 µM (MDA-MB-231 [16]): 85.2%; Activity (MDA-MB-231 [17]): 6.21%; Activity (MDA-MB-231 [19]): 17.9%; GI50 (MDA-MB-435 [20]): 25.3 nM; CC50 (MDA-MB-435 [20]; read-out: LC50 (the source's name)): > 100000 nM; Activity (MDA-MB-231 [21]): Active; GI50 (SK-MEL-5 [22]): 52.3 nM; Activity (MDA-MB-231 [23]): 70.7%
O=C(N/N=C/c1ccc(-c2ccc(O)cc2)o1)c1[nH]c2ccc(Br)cc2c1-c1ccccc1,,,,,,,,,,45 a.u.,7210 nM,Active,4140 nM,Active,growth inhibition (GI) (SF-295 [25]): Active; CC50 (SF-295 [26]): 8090 nM
